The text below walks through data of patent US10172961B2 (priority 2014, dated 2019).

Data set [1] has as its target HPIV3 envelope glycoproteins (Human parainfluenza 3 virus, UniProt P06828). The format is cell-based, Human parainfluenza virus type 3. As to conditions: fusion assay with HPIV3 envelope glycoproteins; for IC50: read-out: IC50 nM, in vitro efficacy; for IC90: read-out: IC90 nM, in vitro efficacy.
A further data set relates to MV-IC323-EGFP. As to conditions: for IC50: 72 h.
In a further data set the test system is wild type MV G954. As to conditions: read-out: IC50, inhibition of MV entry (plaque reduction); wt MV G954, Vero-SLAM cells.
The conditions of data set [2]: rat, in vivo.
The conditions of data set [3]: in vivo; cited from earlier work.

Sequence of HPIV3 envelope glycoproteins (P06828 110-539 limits assumed): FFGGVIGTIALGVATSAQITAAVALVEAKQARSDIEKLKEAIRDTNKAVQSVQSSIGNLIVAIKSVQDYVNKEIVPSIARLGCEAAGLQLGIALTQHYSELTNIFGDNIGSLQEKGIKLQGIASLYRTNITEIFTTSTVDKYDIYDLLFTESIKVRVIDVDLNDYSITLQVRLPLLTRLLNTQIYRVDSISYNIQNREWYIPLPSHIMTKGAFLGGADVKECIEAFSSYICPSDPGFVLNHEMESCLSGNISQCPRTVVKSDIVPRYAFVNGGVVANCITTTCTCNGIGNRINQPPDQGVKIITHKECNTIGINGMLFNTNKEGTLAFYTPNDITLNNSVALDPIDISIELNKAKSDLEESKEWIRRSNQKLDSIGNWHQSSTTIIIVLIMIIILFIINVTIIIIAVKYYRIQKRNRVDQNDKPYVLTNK
Sequence of HPIV3 envelope glycoproteins (P06828 19-109 partner limits assumed): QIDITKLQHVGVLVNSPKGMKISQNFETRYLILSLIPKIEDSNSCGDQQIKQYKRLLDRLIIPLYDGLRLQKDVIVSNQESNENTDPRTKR
Experimental for wild type MV G954: Vero-SLAM cell monolayers were infected with wild type MV G954 in the presence MV HRC peptides at the indicated peptide concentrations. Viral entry was assessed by plaque reduction assay. […] Each point represents the mean (±standard error) of four experiments. […] Vero-SLAM cell monolayers were infected with wild type MV-IC323-EGFP. After 90 minutes, medium with the indicated peptide concentrations was added. Viral spread was assessed by using a fluorescent readout of the EGFP after 72 hours. […] Each point represents the mean (±standard deviation) of a representative experiment.
Vero-SLAM monolayer cells were incubated with 40-50 PFU of wild type MV G954 in the presence of various concentrations of peptides. After 90 minutes, 2× minimal essential medium containing 10% FBS was mixed with 1% avicell and added to the dishes. The plates were then incubated at 37° C. for 72 h. After removing the medium overlay, the cells were immunostained for plaque detection. The number of plaques in the control (no peptide) and experimental wells were counted under a dissecting stereoscope.
The inhibitory activities of MV HRC 1, MV HRC 2, MV HRC 3 and MV HRC 4 (FIG. 1) against wt MV G954 were assessed in plaque reduction assays (FIG. 2A).

As usually defined, the IC50 is the concentration that gives 50% inhibition. The IC90 is the concentration at which the effect reaches the 90% level. “Ac-VALDPIDISIVLNKIKSDLEESKEWIRRSNKILDSI-GSGSG-C(PEG4-Ursolic)-NH2 (SEQ ID NO: 15) [VIKI-PEG4-Ursolic]”: in data set [1], the IC50 is 200 nM and the IC90 is over 1000 nM. The corresponding values for “Ac-VALDPIDISIVLNKIKSDLEESKEWIRRSNKILDSI-GSGSG-C(PEG4-Betulinic)-NH2 (SEQ ID NO: 14) [VIKI-PEG4-Betulinic]” are 550 nM and over 1000 nM.

As to “Ac-VALDPIDISIVLNKIKSDLEESKEWIRRSNKILDSI-GSGSG-C(PEG4-palm)-NH2 (SEQ ID NO: 10) [VIKI-PEG4-palm]”, in data set [1], the IC50 came to 400 nM and the IC90 is over 1000 nM. For `CC[C@H](C)[C@H](NC(=O)[C@H](C)NC(=O)[C@H](CC(N)=O)NC(=O)CNC(=O)[C@H](CC(C)C)NC(=O)[C@H](CC(N)=O)NC(=O)[C@@H](NC(=O)CNC(=O)[C@@H](NC(=O)[C@H](CC(=O)O)NC(=O)[C@H](CC(C)C)NC(=O)[C@H](CCCNC(=N)N)NC(=O)[C@H](CCC(=O)O)NC(=O)[C@H](CC(C)C)NC(=O)[C@H](CO)NC(=O)[C@@H](NC(=O)[C@@H]1CCCN1C(=O)[C@@H]1CCCN1C(C)=O)[C@@H](C)CC)C(C)C)[C@@H](C)O)C(=O)N[C@@H](C)C(=O)N[C@@H](CCCCN)C(=O)N[C@@H](CC(C)C)C(=O)N[C@@H](CCC(=O)O)C(=O)N[C@@H](CC(=O)O)C(=O)N[C@@H](C)C(=O)N[C@@H](CCCCN)C(=O)N[C@@H](CCC(=O)O)C(=O)N[C@@H](CC(C)C)C(=O)N[C@@H](CC(C)C)C(=O)N[C@@H](CCC(=O)O)C(=O)N[C@@H](CO)C(=O)N[C@@H](CO)C(=O)N[C@@H](CC(=O)O)C(=O)N[C@@H](CCC(N)=O)C(=O)N[C@H](C(=O)N[C@@H](CC(C)C)C(=O)N[C@@H](CCCNC(=N)N)C(=O)NCC(=O)N[C@@H](CO)C(=O)NCC(=O)N[C@@H](CO)C(=O)NCC(=O)N[C@@H](CSCC(N)=O)C(N)=O)[C@@H](C)CC` [MV HRC1], in the data set on MV-IC323-EGFP, the “reduction of viral infection (fluorescence level)” value is “neither MV HRC 1 nor MV HRC 3 reduced viral infection”. Besides, in the data set on wild type MV G954, the half-inhibitory concentration (IC50) is about 7000 nM. As to “Ac-VALDPIDISIVLNKIKSDLEESKEWIRRSNKILDSI-GSGSG-C(PEG4-C20)-NH2 (SEQ ID NO: 12) [VIKI-PEG4-C20]”, in data set [1], the IC50 came out at 75 nM and the IC90 was 900 nM. As to `CC[C@H](C)[C@H](NC(=O)[C@H](C)NC(=O)[C@H](CC(N)=O)NC(=O)CNC(=O)[C@H](CC(C)C)NC(=O)[C@H](CC(N)=O)NC(=O)[C@@H](NC(=O)CNC(=O)[C@@H](NC(=O)[C@H](CC(=O)O)NC(=O)[C@H](CC(C)C)NC(=O)[C@H](CCCNC(=N)N)NC(=O)[C@H](CCC(=O)O)NC(=O)[C@H](CC(C)C)NC(=O)[C@H](CO)NC(=O)[C@@H](NC(=O)[C@@H]1CCCN1C(=O)[C@@H]1CCCN1C(C)=O)[C@@H](C)CC)C(C)C)[C@@H](C)O)C(=O)N[C@@H](C)C(=O)N[C@@H](CCCCN)C(=O)N[C@@H](CC(C)C)C(=O)N[C@@H](CCC(=O)O)C(=O)N[C@@H](CC(=O)O)C(=O)N[C@@H](C)C(=O)N[C@@H](CCCCN)C(=O)N[C@@H](CCC(=O)O)C(=O)N[C@@H](CC(C)C)C(=O)N[C@@H](CC(C)C)C(=O)N[C@@H](CCC(=O)O)C(=O)N[C@@H](CO)C(=O)N[C@@H](CO)C(=O)N[C@@H](CC(=O)O)C(=O)N[C@@H](CCC(N)=O)C(=O)N[C@H](C(=O)N[C@@H](CC(C)C)C(=O)N[C@@H](CCCNC(=N)N)C(=O)NCC(=O)N[C@@H](CO)C(=O)NCC(=O)N[C@@H](CO)C(=O)NCC(=O)N[C@@H](CSC1=CC(=O)N(CCCC(=O)NCCOCCOCCOCCOCCC(=O)NCCNCCOC2CCC3(C)C(=CCC4C3CCC3(C)C(C(C)CCCC(C)C)CCC43)C2)C1=O)C(N)=O)[C@@H](C)CC` (some centres unmarked) [MV HRC2], in data set [2], the “presence in the brain / CNS localization” value is listed as “a small fraction of the administered peptides was present” and the “presence in the serum” value was “a small fraction of the administered peptides was present”. The same molecule registered an IC50 in the data set with MV-IC323-EGFP of about 54 nM.

For “Ac-VALDPIDISIVLNKIKSDLEESKEWIRRSNKILDSI-GSGSG-C(PEG4-C30)-NH2 (SEQ ID NO: 13) [VIKI-PEG4-C30]”, in data set [1], the half-maximal inhibitory concentration (IC50) was 40 nM and the IC90 stood at 800 nM. On to `CC[C@H](C)[C@H](NC(=O)[C@H](C)NC(=O)[C@H](CC(N)=O)NC(=O)CNC(=O)[C@H](CC(C)C)NC(=O)[C@H](CC(N)=O)NC(=O)[C@@H](NC(=O)CNC(=O)[C@@H](NC(=O)[C@H](CC(=O)O)NC(=O)[C@H](CC(C)C)NC(=O)[C@H](CCCNC(=N)N)NC(=O)[C@H](CCC(=O)O)NC(=O)[C@H](CC(C)C)NC(=O)[C@H](CO)NC(=O)[C@@H](NC(=O)[C@@H]1CCCN1C(=O)[C@@H]1CCCN1C(C)=O)[C@@H](C)CC)C(C)C)[C@@H](C)O)C(=O)N[C@@H](C)C(=O)N[C@@H](CCCCN)C(=O)N[C@@H](CC(C)C)C(=O)N[C@@H](CCC(=O)O)C(=O)N[C@@H](CC(=O)O)C(=O)N[C@@H](C)C(=O)N[C@@H](CCCCN)C(=O)N[C@@H](CCC(=O)O)C(=O)N[C@@H](CC(C)C)C(=O)N[C@@H](CC(C)C)C(=O)N[C@@H](CCC(=O)O)C(=O)N[C@@H](CO)C(=O)N[C@@H](CO)C(=O)N[C@@H](CC(=O)O)C(=O)N[C@@H](CCC(N)=O)C(=O)N[C@H](C(=O)N[C@@H](CC(C)C)C(=O)N[C@@H](CCCNC(=N)N)C(=O)NCC(=O)N[C@@H](CO)C(=O)NCC(=O)N[C@@H](CO)C(=O)NCC(=O)N[C@@H](CSC1=CC(=O)N(CCCC(=O)NCCOCCOCCOCCOCCC(=O)NCCN(CCNC(=O)CCOCCOCCOCCOCCNC(=O)CCCN2C(=O)C=C(SC[C@H](NC(=O)CNC(=O)[C@H](CO)NC(=O)CNC(=O)[C@H](CO)NC(=O)CNC(=O)[C@H](CCCNC(=N)N)NC(=O)[C@H](CC(C)C)NC(=O)[C@@H](NC(=O)[C@H](CCC(N)=O)NC(=O)[C@H](CC(=O)O)NC(=O)[C@H](CO)NC(=O)[C@H](CO)NC(=O)[C@H](CCC(=O)O)NC(=O)[C@H](CC(C)C)NC(=O)[C@H](CC(C)C)NC(=O)[C@H](CCC(=O)O)NC(=O)[C@H](CCCCN)NC(=O)[C@H](C)NC(=O)[C@H](CC(=O)O)NC(=O)[C@H](CCC(=O)O)NC(=O)[C@H](CC(C)C)NC(=O)[C@H](CCCCN)NC(=O)[C@H](C)NC(=O)[C@@H](NC(=O)[C@H](C)NC(=O)[C@H](CC(N)=O)NC(=O)CNC(=O)[C@H](CC(C)C)NC(=O)[C@H](CC(N)=O)NC(=O)[C@@H](NC(=O)CNC(=O)[C@@H](NC(=O)[C@H](CC(=O)O)NC(=O)[C@H](CC(C)C)NC(=O)[C@H](CCCNC(=N)N)NC(=O)[C@H](CCC(=O)O)NC(=O)[C@H](CC(C)C)NC(=O)[C@H](CO)NC(=O)[C@@H](NC(=O)[C@@H]3CCCN3C(=O)[C@@H]3CCCN3C(C)=O)[C@@H](C)CC)C(C)C)[C@@H](C)O)[C@@H](C)CC)[C@@H](C)CC)C(N)=O)C2=O)CCOC2CCC3(C)C(=CCC4C3CCC3(C)C(C(C)CCCC(C)C)CCC43)C2)C1=O)C(N)=O)[C@@H](C)CC` (some centres unmarked) [MV HRC4], for which the IC50 in the data set with MV-IC323-EGFP was about 55 nM. Take enfuvirtide: the “distribution in the CNS” value in data set [3] is listed as “negligible distribution in the CNS”.
